The target in experiment [1] is Calcium/calmodulin-dependent protein kinase type 1B (Homo sapiens) (UniProt Q6P2M8). Description: Inhibition of human recombinant CaMK1b at 15 nM in presence of ATP by radiometric assay relative to control.
The target of experiment [2] is T1, Eukaryotic elongation factor 2 kinase (Homo sapiens) (UniProt O00418).
T1 sequence (whole entry): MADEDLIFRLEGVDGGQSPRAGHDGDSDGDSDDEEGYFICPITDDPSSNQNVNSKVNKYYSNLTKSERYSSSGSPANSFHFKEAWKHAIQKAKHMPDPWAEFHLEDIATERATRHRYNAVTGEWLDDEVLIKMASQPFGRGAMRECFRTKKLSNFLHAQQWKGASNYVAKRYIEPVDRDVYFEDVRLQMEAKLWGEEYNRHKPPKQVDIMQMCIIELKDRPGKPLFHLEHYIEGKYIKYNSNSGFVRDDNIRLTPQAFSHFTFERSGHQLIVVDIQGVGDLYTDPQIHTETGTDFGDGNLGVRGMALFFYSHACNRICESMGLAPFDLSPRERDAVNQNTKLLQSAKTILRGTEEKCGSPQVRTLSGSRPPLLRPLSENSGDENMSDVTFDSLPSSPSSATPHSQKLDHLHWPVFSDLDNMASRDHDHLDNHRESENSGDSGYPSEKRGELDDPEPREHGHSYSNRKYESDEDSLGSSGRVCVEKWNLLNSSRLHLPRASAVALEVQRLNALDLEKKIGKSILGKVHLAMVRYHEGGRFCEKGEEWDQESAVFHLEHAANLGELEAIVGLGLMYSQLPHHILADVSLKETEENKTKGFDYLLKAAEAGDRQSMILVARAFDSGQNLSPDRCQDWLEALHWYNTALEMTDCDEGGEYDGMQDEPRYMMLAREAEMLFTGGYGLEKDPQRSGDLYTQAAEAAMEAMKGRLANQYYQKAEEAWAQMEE
Put plainly: Inhibition of human recombinant eEF2K at 15 nM related to control ULK1.

Experiment [3] has as its target T2, Ephrin type-A receptor 1 (Homo sapiens) (UniProt P21709).
T2 sequence (whole entry): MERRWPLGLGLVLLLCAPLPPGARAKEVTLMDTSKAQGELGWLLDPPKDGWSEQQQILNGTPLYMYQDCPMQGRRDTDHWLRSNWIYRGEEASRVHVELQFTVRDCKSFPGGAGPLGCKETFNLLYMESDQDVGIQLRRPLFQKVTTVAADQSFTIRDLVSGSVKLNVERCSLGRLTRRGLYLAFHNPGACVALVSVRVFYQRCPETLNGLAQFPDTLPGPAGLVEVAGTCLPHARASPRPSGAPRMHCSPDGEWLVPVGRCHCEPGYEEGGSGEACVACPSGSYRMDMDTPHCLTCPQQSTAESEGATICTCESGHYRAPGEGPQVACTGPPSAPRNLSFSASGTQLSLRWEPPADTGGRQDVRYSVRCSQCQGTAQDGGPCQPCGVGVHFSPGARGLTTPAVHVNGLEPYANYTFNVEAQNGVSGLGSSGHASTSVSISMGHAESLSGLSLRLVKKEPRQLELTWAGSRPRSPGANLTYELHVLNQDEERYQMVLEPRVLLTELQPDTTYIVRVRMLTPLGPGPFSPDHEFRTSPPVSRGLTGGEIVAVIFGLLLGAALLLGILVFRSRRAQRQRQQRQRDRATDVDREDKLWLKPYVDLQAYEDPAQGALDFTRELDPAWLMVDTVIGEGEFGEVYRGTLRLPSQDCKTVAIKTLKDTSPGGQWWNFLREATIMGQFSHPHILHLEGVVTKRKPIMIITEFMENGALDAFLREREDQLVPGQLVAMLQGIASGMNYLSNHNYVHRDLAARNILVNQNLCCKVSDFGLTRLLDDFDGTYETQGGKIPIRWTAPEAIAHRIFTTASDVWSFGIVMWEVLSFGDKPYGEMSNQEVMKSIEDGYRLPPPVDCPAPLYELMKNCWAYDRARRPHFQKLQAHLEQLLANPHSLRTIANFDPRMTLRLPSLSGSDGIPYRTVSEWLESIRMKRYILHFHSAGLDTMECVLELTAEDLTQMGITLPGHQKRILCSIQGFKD
Put plainly: Inhibition of human recombinant EphA1 at 15 nM in presence of ATP by radiometric assay relative to control.

Experiment [4] addresses T3, Phosphorylase b kinase gamma catalytic chain, liver/testis isoform (Homo sapiens) (UniProt P15735).
T3 sequence (whole entry): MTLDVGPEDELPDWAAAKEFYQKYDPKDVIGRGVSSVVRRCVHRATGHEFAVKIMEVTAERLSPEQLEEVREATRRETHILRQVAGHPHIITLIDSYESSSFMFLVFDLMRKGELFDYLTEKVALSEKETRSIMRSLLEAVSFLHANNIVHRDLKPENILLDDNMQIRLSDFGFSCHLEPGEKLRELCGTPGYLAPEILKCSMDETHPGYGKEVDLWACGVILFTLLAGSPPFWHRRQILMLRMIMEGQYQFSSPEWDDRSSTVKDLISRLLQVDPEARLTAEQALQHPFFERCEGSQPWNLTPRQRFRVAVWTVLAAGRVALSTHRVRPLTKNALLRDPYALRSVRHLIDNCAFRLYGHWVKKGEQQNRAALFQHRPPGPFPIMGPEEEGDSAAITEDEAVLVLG
Put plainly: Inhibition of human recombinant PHKg2 at 40 nM in presence of ATP by radiometric assay relative to control.

The target in experiment [5] is Tyrosine-protein kinase Tec (Homo sapiens) (UniProt P42680). Put plainly: Inhibition of human recombinant TEC at 40 nM related to control ULK1.
Chain of Tyrosine-protein kinase Tec (Homo sapiens) (P42680 whole entry, looked up): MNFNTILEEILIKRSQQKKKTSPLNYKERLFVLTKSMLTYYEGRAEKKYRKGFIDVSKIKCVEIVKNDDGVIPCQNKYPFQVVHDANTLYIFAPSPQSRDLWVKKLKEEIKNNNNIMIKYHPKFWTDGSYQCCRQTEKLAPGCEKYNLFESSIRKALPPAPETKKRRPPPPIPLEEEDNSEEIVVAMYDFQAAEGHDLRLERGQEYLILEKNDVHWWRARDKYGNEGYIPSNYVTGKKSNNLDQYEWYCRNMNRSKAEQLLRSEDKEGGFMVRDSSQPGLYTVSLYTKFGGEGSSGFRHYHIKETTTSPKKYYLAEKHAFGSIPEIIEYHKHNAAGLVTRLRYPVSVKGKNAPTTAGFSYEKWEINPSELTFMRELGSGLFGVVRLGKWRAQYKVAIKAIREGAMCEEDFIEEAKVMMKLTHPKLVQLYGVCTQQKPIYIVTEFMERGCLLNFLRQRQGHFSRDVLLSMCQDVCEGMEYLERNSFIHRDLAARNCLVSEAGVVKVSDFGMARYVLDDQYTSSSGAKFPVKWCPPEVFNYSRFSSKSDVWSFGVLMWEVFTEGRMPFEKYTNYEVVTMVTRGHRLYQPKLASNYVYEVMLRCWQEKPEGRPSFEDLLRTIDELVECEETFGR
Experiment [6] has as its target Cyclin-dependent kinase 6 (Homo sapiens) (UniProt Q00534). Description: Inhibition of human recombinant CDK6 at 40 nM in presence of ATP by radiometric assay relative to control.
Experiment [7] has as its target T4, Protein kinase C zeta type (Homo sapiens) (UniProt Q05513).
T4 sequence (whole entry): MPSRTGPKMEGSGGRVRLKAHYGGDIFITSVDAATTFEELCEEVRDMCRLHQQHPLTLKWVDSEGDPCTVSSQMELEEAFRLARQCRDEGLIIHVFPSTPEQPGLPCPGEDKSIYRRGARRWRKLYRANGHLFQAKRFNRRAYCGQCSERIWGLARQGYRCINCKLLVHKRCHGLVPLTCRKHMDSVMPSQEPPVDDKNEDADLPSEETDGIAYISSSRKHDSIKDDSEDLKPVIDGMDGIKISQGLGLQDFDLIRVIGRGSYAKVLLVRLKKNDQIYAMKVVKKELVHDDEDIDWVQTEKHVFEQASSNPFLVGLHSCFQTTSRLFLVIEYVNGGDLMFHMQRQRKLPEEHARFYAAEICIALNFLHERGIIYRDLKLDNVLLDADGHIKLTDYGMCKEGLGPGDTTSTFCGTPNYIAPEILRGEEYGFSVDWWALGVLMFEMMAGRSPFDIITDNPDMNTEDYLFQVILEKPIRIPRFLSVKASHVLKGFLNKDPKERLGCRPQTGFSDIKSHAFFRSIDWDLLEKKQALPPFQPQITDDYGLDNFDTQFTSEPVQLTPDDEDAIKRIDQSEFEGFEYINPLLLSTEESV
Put plainly: Inhibition of human recombinant PKCz at 500 nM related to control ULK1.

SMILES strings stand for the structures.

Chain of Cyclin-dependent kinase 6 (Homo sapiens) (Q00534 whole entry): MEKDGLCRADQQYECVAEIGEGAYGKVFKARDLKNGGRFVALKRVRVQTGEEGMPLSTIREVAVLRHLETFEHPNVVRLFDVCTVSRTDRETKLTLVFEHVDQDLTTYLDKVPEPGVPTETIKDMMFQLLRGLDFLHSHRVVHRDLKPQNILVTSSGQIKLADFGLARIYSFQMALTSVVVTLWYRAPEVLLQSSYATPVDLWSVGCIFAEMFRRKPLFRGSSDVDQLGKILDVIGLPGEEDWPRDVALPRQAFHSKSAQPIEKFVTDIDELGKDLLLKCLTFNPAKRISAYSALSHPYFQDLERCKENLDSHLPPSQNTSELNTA
Chain of Calcium/calmodulin-dependent protein kinase type 1B (Homo sapiens) (Q6P2M8 whole entry): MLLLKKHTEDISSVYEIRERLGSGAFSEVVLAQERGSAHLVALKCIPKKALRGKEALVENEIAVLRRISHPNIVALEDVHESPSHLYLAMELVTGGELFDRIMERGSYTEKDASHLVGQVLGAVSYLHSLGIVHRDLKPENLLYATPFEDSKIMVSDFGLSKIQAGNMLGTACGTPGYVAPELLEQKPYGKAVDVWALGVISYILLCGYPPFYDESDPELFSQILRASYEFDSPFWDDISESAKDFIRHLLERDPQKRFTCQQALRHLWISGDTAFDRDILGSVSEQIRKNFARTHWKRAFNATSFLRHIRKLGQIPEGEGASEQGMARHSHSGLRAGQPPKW

As to `CC(C)[C@H](NC(=O)c1cc(-c2cnn3cc(-c4ccc(OCCN5CCCCC5)cc4)cnc23)cs1)C(F)(F)F`, the inhibition in experiment [1] and in experiment [3] was 0% throughout. In addition, in experiment [2], the fold change (FC) worked out at 0.11.
In the case of `O=C(N[C@@H](C1CC1)C(F)(F)F)c1cc(-c2cnn3cc(-c4ccc(F)cc4)cnc23)cs1`, the inhibition in experiment [4] worked out at 0%; in experiment [6], 3%. In addition, the fold change (FC) in experiment [5] amounted to 0.
On to `CNC(=O)c1ccccc1Oc1nc(Nc2cc(OC)c(OC)c(OC)c2)ncc1Br`, for which, in experiment [7], the fold change (FC) came to 0.

What is called inhibition is the drop in the measured response relative to a control, in per cent.

These data come from ChEMBL document CHEMBL5653631, “A Potent and Selective ULK1 Inhibitor Suppresses Autophagy and Sensitizes Cancer Cells to Nutrient Stress” (iScience, 2018).
